# Measurements taken from ChEMBL document CHEMBL4308866, “Rotenoisin A is a novel anti-adipogenic compound” (Bioorg Med Chem Lett, 2019).
# Active and inactive are the calls of the source. The calls are words filed in the database; no cut-off is given here.
# Columns and labels:
# [1] = biological target: T1, 5'-AMP-activated protein kinase (Mus musculus) (UniProt Q5EG47+Q8BRK8+Q6PAM0+O54950+Q91WG5+Q9R078+Q8BGM7); assay: Activation of AMPK in mouse 3T3L1 adipocytes in DMI differentiation media assessed as decrease in C/EBPbeta expression at 1.5 ug/ml after 24 hrs in presence of AMPK inhibitor compound C by Western blot analysis; format: cell-based; conditions: 3T3-L1
# [2] = biological target: T1, 5'-AMP-activated protein kinase (Mus musculus); assay: Activation of AMPK in mouse 3T3L1 adipocytes in DMI differentiation media at 1.5 ug/ml after 24 hrs in presence of AMPK inhibitor compound C by Western blot analysis; format: cell-based; conditions: 3T3-L1
# [3] = biological target: T1, 5'-AMP-activated protein kinase (Mus musculus); assay: Activation of AMPK in mouse 3T3L1 adipocytes in DMI differentiation media assessed as decrease in C/EBPalpha expression after 4 to 8 days by Western blot analysis; format: cell-based; conditions: 3T3-L1
# [4] = biological target: T1, 5'-AMP-activated protein kinase (Mus musculus); assay: Activation of AMPK in mouse 3T3L1 adipocytes in DMI differentiation media assessed as decrease in C/EBPalpha mRNA expression after 4 days by RP-PCR analysis; format: cell-based; conditions: 3T3-L1
# [5] = biological target: T1, 5'-AMP-activated protein kinase (Mus musculus); assay: Activation of AMPK in mouse 3T3L1 adipocytes in DMI differentiation media assessed as decrease in PPARgamma mRNA expression after 4 days by RP-PCR analysis; format: cell-based; conditions: 3T3-L1
# [6] = biological target: T1, 5'-AMP-activated protein kinase (Mus musculus); assay: Activation of AMPK in mouse 3T3L1 adipocytes in DMI differentiation media assessed as decrease in PPARgamma expression after 4 to 8 days by Western blot analysis; format: cell-based; conditions: 3T3-L1
# 3T3-L1 [7] = assay: Anti-adipogenic activity in mouse 3T3L1 preadipocytes assessed as inhibition of insulin/dexamethasone/isobutylmethylxanthine induced-lipid accumulation treated every 2 days following compound washout for 8 days by Oil-red O staining based assay; format: functional, cell-based
# [8] = biological target: T1, 5'-AMP-activated protein kinase (Mus musculus); assay: Activation of AMPK in mouse 3T3L1 adipocytes in DMI differentiation media assessed as decrease in PPARgamma expression at 1.5 ug/ml after 6 days in presence of AMPK inhibitor compound C by Western blot analysis; format: cell-based; conditions: 3T3-L1
# 3T3-L1 [9] = assay: Anti-adipogenic activity in mouse 3T3L1 adipocytes assessed as inhibition of insulin/dexamethasone/isobutylmethylxanthine induced-triglyceride accumulation at 0.4 ug/ml treated every 2 days following compound washout for 8 days by ELISA relative to control; format: functional
# [10] = biological target: T1, 5'-AMP-activated protein kinase (Mus musculus); assay: Activation of AMPK phosphorylation at […] residue in mouse 3T3L1 adipocytes in DMI differentiation media in presence of AMPK inhibitor compound C by Western blot analysis; format: cell-based; conditions: 3T3-L1
# 3T3-L1 [11] = assay: Effect on total AMPK expression in mouse 3T3L1 adipocytes in DMI differentiation media at 0.4 to 1.5 ug/ml after 4 to 8 days by Western blot analysis; format: ADME, cell-based
# [12] = biological target: T1, 5'-AMP-activated protein kinase (Mus musculus); assay: Activation of AMPK in mouse 3T3L1 adipocytes in DMI differentiation media assessed as increase in ACC phosphorylation after 4 to 8 days by Western blot analysis; format: cell-based; conditions: 3T3-L1
# 3T3-L1 [13] = assay: Induction of morphological changes in mouse 3T3L1 cells; format: cell-based
# 3T3-L1 [14] = assay: Anti-adipogenic activity in mouse 3T3L1 preadipocytes assessed as inhibition of insulin/dexamethasone/isobutylmethylxanthine induced-cell differentiation treated every 2 days following compound washout for 8 days by Oil-red O staining based assay; format: functional
# [15] = biological target: T1, 5'-AMP-activated protein kinase (Mus musculus); assay: Activation of AMPK in mouse 3T3L1 adipocytes in DMI differentiation media assessed as decrease in C/EBPbeta expression after 4 to 8 days by Western blot analysis; format: cell-based; conditions: 3T3-L1
# 3T3-L1 [16] = assay: Anti-adipogenic activity in mouse 3T3L1 adipocytes assessed as inhibition of insulin/dexamethasone/isobutylmethylxanthine induced-triglyceride accumulation at 1.5 ug/ml treated every 2 days following compound washout for 8 days by ELISA relative to control; format: functional
# [17] = biological target: T1, 5'-AMP-activated protein kinase (Mus musculus); assay: Activation of AMPK in mouse 3T3L1 adipocytes in DMI differentiation media assessed as increase in ACC phosphorylation in presence of AMPK inhibitor compound C by Western blot analysis; format: cell-based; conditions: 3T3-L1
# [18] = biological target: T1, 5'-AMP-activated protein kinase (Mus musculus); assay: Activation of AMPK in mouse 3T3L1 adipocytes in DMI differentiation media assessed as decrease in aP2 expression after 4 to 8 days by Western blot analysis; format: cell-based; conditions: 3T3-L1
# [19] = biological target: T1, 5'-AMP-activated protein kinase (Mus musculus); assay: Activation of AMPK in mouse 3T3L1 adipocytes in DMI differentiation media assessed as decrease in C/EBPalpha expression at 1.5 ug/ml after 6 days in presence of AMPK inhibitor compound C by Western blot analysis; format: cell-based; conditions: 3T3-L1
# [20] = biological target: T1, 5'-AMP-activated protein kinase (Mus musculus); assay: Activation of AMPK in mouse 3T3L1 adipocytes in DMI differentiation media assessed as decrease in C/EBPbeta mRNA expression after 4 days by RP-PCR analysis; format: cell-based; conditions: 3T3-L1
# [21] = biological target: AMP-activated protein kinase, AMPK (Homo sapiens) (UniProt P54646+O43741+P54619+Q9UGJ0+Q9Y478+Q13131+Q9UGI9); assay: Activation of AMPK (unknown origin) at 0.4 to 1.5 ug/ml; format: protein-complex assay
# 3T3-L1 [22] = assay: Cytotoxicity against mouse 3T3L1 cells assessed as effect on cell viability up to 1.5 ug/ml after 4 to 8 days by MTT assay; format: cell-based
# [23] = biological target: T1, 5'-AMP-activated protein kinase (Mus musculus); assay: Activation of AMPK phosphorylation at […] residue in mouse 3T3L1 adipocytes in DMI differentiation media after 4 to 8 days by Western blot analysis; format: cell-based; conditions: 3T3-L1
# [24] = biological target: T1, 5'-AMP-activated protein kinase (Mus musculus); assay: Activation of AMPK in mouse 3T3L1 adipocytes in DMI differentiation media assessed as decrease in LPL expression after 4 to 8 days by Western blot analysis; format: cell-based; conditions: 3T3-L1
# [25] = biological target: T1, 5'-AMP-activated protein kinase (Mus musculus); assay: Activation of AMPK in mouse 3T3L1 adipocytes in DMI differentiation media at 0.4 to 1.5 ug/ml after 8 days by Western blot analysis; format: cell-based; conditions: 3T3-L1
# [26] = biological target: T1, 5'-AMP-activated protein kinase (Mus musculus); assay: Activation of AMPK in mouse 3T3L1 adipocytes in DMI differentiation media assessed as decrease in FAS expression after 4 to 8 days by Western blot analysis; format: cell-based; conditions: 3T3-L1
structure (smiles),measurement,setting,value
C=C(C)[C@H]1Cc2c(ccc3c2O[C@@H]2COc4cc(OC)c(OC)cc4[C@@H]2[C@@]32CO2)O1 [ROTENOISIN A],Activity,[1],inactive
same,Activity,[2],inactive
same,Activity,[3],Dose-dependent effect
same,Activity,[4],Dose-dependent effect
same,Activity,[5],Dose-dependent effect
same,Activity,[6],Dose-dependent effect
same,inhibition,3T3-L1 [7],Dose-dependent effect
same,Activity,[8],inactive
same,inhibition at 0.4 µg/mL,3T3-L1 [9],23%
same,Activity,[10],inactive
same,Activity,3T3-L1 [11],Non-Toxic
same,Activity,[12],Dose-dependent effect
same,Activity,3T3-L1 [13],Non-Toxic
same,inhibition,3T3-L1 [14],Dose-dependent effect
same,Activity,[15],Dose-dependent effect
same,inhibition at 1.5 µg/mL,3T3-L1 [16],57%
same,Activity,[17],inactive
same,Activity,[18],Dose-dependent effect
same,Activity,[19],inactive
same,Activity,[20],Dose-dependent effect
same,Activity,[21],inactive
same,Activity,3T3-L1 [22],Non-Toxic
same,Activity,[23],Dose-dependent effect
same,Activity,[24],Dose-dependent effect
same,Activity,[25],Active
same,Activity,[26],Dose-dependent effect
